According to patent publication US9718817B2, “Aryl and heteroaryl ether compounds as ROR gamma modulators” (Glenmark Pharmaceuticals S.A., priority 2014, dated 2017):

Molecular target: T1, GST-tagged ROR gamma ligand binding domain (LBD) (Homo sapiens, UniProt P51449)
T1 construct: purchased Invitrogen
T1 sequence (P51449 269-508 limits assumed): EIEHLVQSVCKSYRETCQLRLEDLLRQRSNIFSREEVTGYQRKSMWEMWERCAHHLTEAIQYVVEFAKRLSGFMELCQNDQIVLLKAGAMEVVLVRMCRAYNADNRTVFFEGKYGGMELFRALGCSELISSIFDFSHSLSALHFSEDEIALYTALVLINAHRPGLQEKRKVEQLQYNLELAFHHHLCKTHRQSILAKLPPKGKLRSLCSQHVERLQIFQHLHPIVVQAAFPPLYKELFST
Experiment: TR-FRET assay for ROR gamma (LanthaScreen co-activator peptide recruitment)
Type: biochemical
Conditions: for inhibition at 1 µM: compound 1 μM; for inhibition at 1 µM / inhibition at 10 µM: TR-FRET ratio 520/495, percent of control; for inhibition at 10 µM: compound 10 μM; for IC50: class symbols, from dose response curve
Description: The compounds described herein were screened for ROR gamma modulator activity using the TR-FRET assay by Lantha Screen as described in JBC 2011, 286, 26: 22707-10; and Drug Metabolism and Disposition 2009, 37, 10: 2069-78.
The assay is based on the principle that binding of the agonist to the ROR gamma causes a conformational change around helix 12 in the ligand binding domain, resulting in higher affinity for the co-activator peptide. ROR gamma being constitutively active, the Fluorescein-D22 co-activator peptide used in the assay is recruited in the absence of a ligand. Binding of the co-activator peptide, causes an increase in the TR-FRET signal while binding of an antagonist decreases the recruitment of the co-activator peptide, causing a decrease in the TR-FRET signal compared to control with no compound. The assay was performed using a two-step procedure, pre-incubation step with the compound followed by the detection step on addition of the anti-GST tagged terbium (Tb) and fluorescein tagged fluorophores as the acceptor.
Test compounds or reference compounds such as T0901317 (Calbiochem) were dissolved in dimethylsulfoxide (DMSO) to prepare 10.0 mM stock solutions and diluted to the desired concentration. The final concentration of DMSO in the reaction was 4% (v/v). The assay mixture was prepared by mixing 10 nM of the GST-tagged ROR gamma ligand binding domain (LBD) in the assay buffer containing 25 mM HEPES (pH 7.4), 100 mM NaCl, 5 mM DTT and 0.01% BSA with or without the desired concentration of the compound. The reaction was incubated at 22° C. for 1 hour. The pre-incubation step was terminated by addition of the detection mixture containing 300 nM Fluorescein-D22 co-activator peptide and 10 nM lantha screen Tb-anti GST antibody into the reaction mixture. After shaking for 5 minutes the reaction was further incubated for 1 hour at room temperature and read at 4° C. on an Infinite F500 reader as per the kit instructions (Invitrogen). The inhibition of test compound was calculated based on the TR-FRET ratio of 520/495. The activity was calculated as a percent of control reaction. IC50 values were calculated from dose response curve by nonlinear regression analysis using GraphPad Prism software.
Percentage inhibition at concentrations of 1.0 μM and 10.0 μM are given in the table along with IC50 (nM) details for selected examples.

| Structure (SMILES) | inhibition at 1 µM [%] | inhibition at 10 µM [%] | IC50 [nM] |
| --- | --- | --- | --- |
| CCS(=O)(=O)c1ccc(CC(=O)Nc2ccc(OC3(c4ccc(C(F)(F)F)c(F)c4)COC3)cc2)cc1 [Example 48, (4-Ethanesulfonyl-phenyl)-N-{4-[3-(3-fluoro-4-trifluoromethyl-phenyl)-oxetan-3-yloxy]-phenyl}-acetamide] | 60.3 | 77.4 | – |
| CCS(=O)(=O)c1ccc(CC(=O)Nc2ccc(OC3(c4ccc(Cl)c(Cl)c4)CC3)cc2)cc1 [Example 49, N-{4-[1-(3,4-Dichloro-phenyl)-cyclopropoxy]-phenyl}-2-(4-ethanesulfonyl-phenyl)-acetamide] | 69.1 | 80 | 50 to 100 |
| CCS(=O)(=O)c1ccc(CC(=O)Nc2ccc(OC3(c4ccc(Cl)c(F)c4)CC3)cc2)cc1 [Example 50, N-{4-[1-(4-Chloro-3-fluoro-phenyl)-cyclopropoxy]-phenyl}-2-(4-ethanesulfonyl-phenyl)-acetamide] | 81.3 | 87.9 | < 50 |
| CCS(=O)(=O)c1ccc(CC(=O)Nc2ccc(OC3(c4ccc(Cl)cc4F)CC3)cc2)cc1 [Example 51, N-{4-[1-(4-Chloro-2-fluoro-phenyl)-cyclopropoxy]-phenyl}-2-(4-ethanesulfonyl-phenyl)-acetamide] | 85.9 | 87.7 | < 50 |
| CCS(=O)(=O)c1ccc(CC(=O)Nc2ccc(OC3(c4ccc(Cl)c(F)c4)CC3)nc2)cc1 [Example 52, N-{6-[1-(4-Chloro-3-fluoro-phenyl)-cyclopropoxy]-pyridin-3-yl}-2-(4-ethanesulfonyl-phenyl)-acetamide] | 63.7 | 83.8 | – |
| CCS(=O)(=O)c1ccc(CC(=O)Nc2ccc(OC3(c4ccc(Cl)c(Cl)c4)CC3)nc2)cc1 [Example 53, N-{6-[1-(3,4-Dichloro-phenyl)-cyclopropoxy]-pyridin-3-yl}-2-(4-ethanesulfonyl-phenyl)-acetamide] | 52.6 | 76.5 | – |
| CCS(=O)(=O)c1ccc(CC(=O)Nc2ccc(OC3(c4ccc(Cl)c(F)c4)CCC3)nc2)cc1 [Example 54, N-{6-[1-(4-Chloro-3-fluoro-phenyl)-cyclobutoxy]-pyridin-3-yl}-2-(4-ethanesulfonyl-phenyl)-acetamide] | 92 | 93.7 | < 50 |
| CCS(=O)(=O)c1ccc(CC(=O)Nc2ccc(OC3(c4ccc(Cl)c(F)c4)CCOCC3)nc2)cc1 [Example 55, N-{6-[4-(4-Chloro-3-fluoro-phenyl)-tetrahydro-pyran-4-yloxy]-pyridin-3-yl}-2-(4-ethanesulfonyl-phenyl)-acetamide] | 75.5 | 80.3 | – |
| CCS(=O)(=O)c1ccc(CC(=O)Nc2ccc(OC(C)(C)c3ccc(Cl)cc3F)nc2)cc1 [Example 56, N-{6-[1-(4-Chloro-2-fluoro-phenyl)-1-methyl-ethoxy]-pyridin-3-yl}-2-(4-ethanesulfonyl-phenyl)-acetamide] | 83.1 | 91.3 | < 50 |
| CCS(=O)(=O)c1ccc(CC(=O)Nc2ccc(OC(C)(C)c3ccc(F)cc3Cl)nc2)cc1 [Example 57, N-{6-[1-(2-Chloro-4-fluoro-phenyl)-1-methyl-ethoxy]-pyridin-3-yl}-2-(4-ethanesulfonyl-phenyl)-acetamide] | 78 | 91.3 | 50 to 100 |
| CCS(=O)(=O)c1ccc(CC(=O)Nc2ccc(OC(C)(C)c3ccc(Cl)cc3Cl)nc2)cc1 [Example 58, N-(6-{[2-(2,4-Dichlorophenyl)propan-2-yl]oxy}pyridin-3-yl)-2-[4-(ethylsulfonyl)phenyl]acetamide] | 83.7 | 86.7 | < 50 |
| CCS(=O)(=O)c1ccc(CC(=O)Nc2ccc(OC(C)(C)c3ccc(Cl)c(Cl)c3)nc2)cc1 [Example 59, N-{6-[1-(3,4-Dichloro-phenyl)-1-methyl-ethoxy]-pyridin-3-yl}-2-(4-ethanesulfonyl-phenyl)-acetamide] | 71.8 | 86.7 | < 50 |
| CCS(=O)(=O)c1ccc(CC(=O)Nc2ccc(C#CCOc3ccc(Cl)cc3Cl)cc2)cc1 [Example 60, N-{4-[3-(2,4-Dichlorophenoxy)prop-1-yn-1-yl]phenyl}-2-[4-(ethylsulfonyl)phenyl]acetamide] | 92.6 | 90.4 | > 100 |
| CCS(=O)(=O)c1ccc(CC(=O)Nc2ccc(C#CCOc3ccc(Cl)c(Cl)c3)cc2)cc1 [Example 61, N-{4-[3-(3,4-Dichlorophenoxy)prop-1-yn-1-yl]phenyl}-2-[4-(ethylsulfonyl)phenyl]acetamide] | 85.5 | 92.9 | > 100 |
| CCS(=O)(=O)c1ccc(CC(=O)Nc2ccc(C#CC(C)(C)Oc3ccc(Cl)c(Cl)c3)cc2)cc1 [Example 62, N-{4-[3-(3,4-Dichlorophenoxy)-3-methylbut-1-yn-1-yl]phenyl}-2-[4-(ethylsulfonyl)phenyl]acetamide] | 86.3 | 90.2 | < 50 |
| CCS(=O)(=O)c1ccc(CC(=O)Nc2ccc(C#CC(C)(C)Oc3ccc(Cl)cc3Cl)cc2)cc1 [Example 63, N-{4-[3-(2,4-Dichloro-phenoxy)-3-methyl-but-1-yn-1-yl]-phenyl}-2-(4-ethanesulfonyl-phenyl)-acetamide] | 80.5 | 84.5 | < 50 |
| CCS(=O)(=O)c1ccc(CC(=O)Nc2ccc(C#CC(C)(C)Oc3ccc(Cl)cc3)cc2)cc1 [Example 64, N-{4-[3-(4-Chloro-phenoxy)-3-methyl-but-1-yn-1-yl]-phenyl}-2-(4-ethanesulfonyl-phenyl)-acetamide] | 82.2 | 84.2 | < 50 |
| CCS(=O)(=O)c1ccc(CC(=O)Nc2ccc(C#CC(C)(C)Oc3ccc(Cl)cc3F)cc2)cc1 [Example 65, N-{4-[3-(4-Chloro-2-fluoro-phenoxy)-3-methyl-but-1-yn-1-yl]-phenyl}-2-(4-ethanesulfonyl-phenyl)-acetamide] | 83.9 | 88.2 | < 50 |
| CCS(=O)(=O)c1ccc(CC(=O)Nc2ccc(C#CC(C)(C)Oc3ccc(Cl)c(F)c3)cc2)cc1 [Example 66, N-{4-[3-(4-Chloro-3-fluoro-phenoxy)-3-methyl-but-1-yn-1-yl]-phenyl}-2-(4-ethanesulfonyl-phenyl)-acetamide] | 84.3 | 87.5 | < 50 |
| CCS(=O)(=O)c1ccc(CC(=O)Nc2ccc(C#CC(C)(C)Oc3ccc(F)cc3Cl)cc2)cc1 [Example 67, N-{4-[3-(2-Chloro-4-fluoro-phenoxy)-3-methyl-but-1-yn-1-yl]-phenyl}-2-(4-ethanesulfonyl-phenyl)-acetamide] | 70.5 | 75.7 | – |
| CCS(=O)(=O)c1ccc(CC(=O)Nc2ccc(C#CC(C)(C)Oc3ccc(F)c(Cl)c3)cc2)cc1 [Example 68, N-{4-[3-(3-Chloro-4-fluoro-phenoxy)-3-methyl-but-1-yn-1-yl]-phenyl}-2-(4-ethanesulfonyl-phenyl)-acetamide] | 70.7 | 79.9 | – |
